pIC50: −log10 of the molar value. Where two headings read alike, the source gives them in different places.
Tests used:
[1] = tested on: platelet aggregation induced by PAF; test: Inhibition of platelet aggregation induced by PAF (rabbit platelet rich plasma, Born nephelometric technique); assay type: cell-based, New Zealand albino rabbits; settings: concentration needed to inhibit platelet aggregation by 50%, PAF (C₁₈) 16 nM final, read-out: IC₅₀
Experimental: Inhibition of platelet aggregation induced by PAF.
The blood is obtained by cardiac puncture of male New Zealand albino rabbits (between 2 and 2.5 Kg of weight) and coagulation is prevented by adding 1 part of 3.16% sodium citrate dihydrate in 9 parts of blood. The platelet rich plasma (PRP) is prepared by blood centrifugation at 250xg for 10 min. at 4°C and it is diluted with platelet poor plasma (PPP) by additional centrifugation at 3000xg for 10 min. The amount of platelets is adjusted to […]. The platelet aggregation induced by PAF (C₁₈; prepared in our laboratory) (16 nM, final) is determined by the Born nephelometric technique (J. Physiol., 1962, 162 67) using a aggregometer Chrono-log 500.
The activities of the inhibitors are expressed as IC₅₀, that is to say the concentration of the drug needed to inhibit the platelet aggregation by 50%.

[2] = tested on: hypotension induced by PAF; test: Inhibition of the hypotensive effect induced by PAF in normotense rats; assay type: in vivo, Sprage Dawley rats; settings: Rattus norvegicus, iv; anesthetized male rats; compound given through the femoral vein 3 min before PAF (0.5 mcg/Kg, i.v.); average arterial pressure; read-out: IC₅₀
Experimental: Inhibition of the hypotensive effect induced by PAF in normotense rats. Male Sprage Dawley rats, of 180-220 g of weight, anesthetized with sodium pentobarbital (50 mg/Kg, i.p. 1 mL/100 g) have been used. In order to measure the average arterial pressure, a polyethylene catheter is introduced into the carotid artery. The arterial pressure is recorded with the help of a transducer connected with a R611 Beckman polygraph. The tested compounds are administered through the femoral vein 3 min before the injection of PAF (0.5 mcg/Kg, i.v.).

| pIC50 ([1]; Oryctolagus cuniculus) | pIC50 [1] | SMILES | ED50 [2] [mg/kg] |
| --- | --- | --- | --- |
| 6.00 |  | CCCCCCCCCCCCCCCCOCC1COC(COC(=O)N(Cc2cccc[n+]2C)C(C)=O)O1.[I-] (centres unmarked) [Compound 7, 2-[N-Acetyl-N-[((5-hexadecyloxymethyl-1,3-dioxolane-2-yl)methoxy)carbonyl]aminomethyl]-1-methylpyridinium iodide] | 0.32 |
| > 7.30 |  | CCCCCCCCCCCCCCCCCC1COC(COC(=O)N(Cc2cccc[n+]2CC)C(C)=O)O1.[I-] (centres unmarked) [Compound 3, 2-[N-Acetyl-N-[((5-heptadecyl-1,3-dioxolan-2-yl)methoxy)carbonyl]aminomethyl]-1-ethylpyridinium iodide] | 0.074 |
| > 7.30 |  | CCCCCCCCCCCCCCCNC(=O)OCC1COC(COC(=O)N(Cc2cccc[n+]2CC)C(C)=O)O1.[I-] (centres unmarked) [Compound 20, 2-[N-Acetyl-N-[((5-pentadecylcarbamoyloxymethyl-1,3-dioxolane-2-yl)methoxy)carbonyl]aminomethyl]-1-ethylpyridinium iodide] | 0.093 |
|  | > 7.30 | CCCCCCCCCCCCCCCCOCC1COC(COC(=O)N(Cc2cccc[n+]2CC)C(C)=O)O1.[Cl-] (centres unmarked) [Compound 9, 2-[N-Acetyl-N-[((5-hexadecyloxymethyl-1,3-dioxolane-2-yl)methoxy)carbonyl]aminomethyl]-1-ethylpyridinium chloride] | < 0.05 |
| 6.82 |  | CCCCCCCCCCCCCCOCC1COC(COC(=O)N(Cc2cccc[n+]2CC)C(C)=O)O1.[I-] (centres unmarked) [Compound 17, 2-[N-Acetyl-N-[((5-tetradecyloxymethyl-1,3-dioxolane-2-yl)methoxy)carbonyl]aminomethyl]-1-ethylpyridinium iodide] | 0.2 |
| > 7.30 |  | CCCCCCCCCCCCCCCCCNC(=O)OCC1COC(COC(=O)N(Cc2ccccn2)C(C)=O)O1 (centres unmarked) [Compound 22, 2-[N-Acetyl-N-[((5-heptadecylcarbamoyloxymethyl-1,3-dioxolane-2-yl)methoxy)carbonyl]aminomethyl] pyridine] | < 0.05 |
| > 7.30 |  | CCCCCCCCCCCCCCCCOCC1COC(COC(=O)N(Cc2cccc[n+]2CC)C(C)=O)O1.[I-] (centres unmarked) [Compound 8, 2-[N-Acetyl-N-[((5-hexadecyloxymethyl-1,3-dioxolane-2-yl)methoxy)carbonyl]aminomethyl]-1-ethylpyridinium iodide] | < 0.05 |
| 6.96 |  | CCCCCCCCCCCCCCCCCCOCC1COC(COC(=O)N(Cc2cccc[n+]2CC)C(C)=O)O1.[I-] (centres unmarked) [Compound 14, 2-[N-Acetyl-N-[((5-octadecyloxymethyl-1,3-dioxolane-2-yl)methoxy)carbonyl]aminomethyl]-1-ethylpyridinium iodide] | < 0.05 |
| 5.40 |  | CCCCCCCCCCCCCCCCOCC1COC(COC(=O)N(Cc2ccccn2)C(C)=O)O1.Cl (centres unmarked) [Compound 6, 2-[N-Acetyl-N-[((5-hexadecyloxymethyl-1,3-dioxolane-2-yl)methoxy)carbonyl]aminomethyl] pyridine hydrochloride] | > 5 |
| 6.85 |  | CCCCCCCCCCCCCCCCOCC1COC(COC(=O)N(Cc2cccc[n+]2CC)C(=O)OCC)O1.[I-] (centres unmarked) [Compound 11, 2-[N-Ethoxycarbonyl-N-[((5-hexadecyloxymethyl-1,3-dioxolane-2-yl)methoxy)carbonyl]aminomethyl]-1-ethylpyridinium iodide] | 0.095 |
